Results reported in ChEMBL document CHEMBL1123690, “Redox chemistry of the 9-anilinoacridine class of antitumor agents” (J Med Chem, 1987).

Tested on: L1210
Assay: Dose of the drug (mol /kg) providing a 50% life extension in L1210 assays when given at qd 1-5 schedule.
Type: functional, Mus musculus
Settings: not given

Row | SMILES | Log 1/D50
1 | COP(=O)(Nc1ccc(Nc2c3ccccc3nc3ccccc23)cc1)OC | 4.46

Tested on: L1210
Assay: Inhibitory concentration to reduce the growth of L1210 cells by 50% after 70 hr.
Type: functional, cell-based
Settings: Mus musculus, L1210, 70 h

Row | SMILES | IC50
2 | CCNc1ccc(Nc2c3ccccc3nc3ccccc23)cc1 | 250 nM
3 | O=C(Nc1ccc(Nc2c3ccccc3nc3ccccc23)cc1)c1ccccc1 | 20 nM
4 | COP(=O)(Nc1ccc(Nc2c3ccccc3nc3ccccc23)cc1)OC | 15 nM
5 | CN(C)c1ccc(Nc2c3ccccc3nc3ccccc23)cc1 | 600 nM
6 | O=S(=O)(Nc1ccc(Nc2c3ccccc3nc3ccccc23)cc1)c1ccccc1 | 3.5 nM
7 | COC(=O)Nc1ccc(Nc2c3ccccc3nc3ccccc23)cc1 | 60 nM
8 | CS(=O)(=O)Nc1ccc(Nc2c3ccccc3nc3ccccc23)cc1 | 35 nM
9 | Oc1ccc(Nc2c3ccccc3nc3ccccc23)cc1 | 250 nM
10 | Nc1ccc(Nc2c3ccccc3nc3ccccc23)cc1 | 350 nM
11 | CNc1ccc(Nc2c3ccccc3nc3ccccc23)cc1 | 180 nM
12 | CC(=O)Nc1ccc(Nc2c3ccccc3nc3ccccc23)cc1 | 100 nM
